A short description of assay [1]: Cytotoxicity against human MHCC97L cells assessed as growth inhibition after 24 hrs by MTT assay. The format is functional, cell-based.
Another assay deals with PLC-PRF-5. Briefly: Cytotoxicity against human PLC/PRF/5 cells assessed as growth inhibition after 24 hrs by MTT assay. The class given is functional, cell-based. The conditions noted are these: PLC-PRF-5, 24 h. A general note: Tetrazolium assays rely on reduction of a dye to a coloured formazan, in cell work by metabolically active cells.

As for `COc1cc(NC(=O)c2cc[nH]n2)c2cc1Oc1ccc(cc1)C[C@H]1c3cc(c(OC)cc3CCN1C)Oc1c(OC)c(OC)cc3c1[C@H](C2)N(C)CC3`, the half-maximal inhibitory concentration (IC50) worked out at 4.17 µM in assay [1] and 2.24 µM in the assay on PLC-PRF-5.
Consider `COc1cc(NC(=O)C(F)(F)F)c2cc1Oc1ccc(cc1)C[C@H]1c3cc(c(OC)cc3CCN1C)Oc1c(OC)c(OC)cc3c1[C@H](C2)N(C)CC3`, for which the values for the IC50 (in assay [1]; with PLC-PRF-5) were 2.41 µM and 2.24 µM, respectively.
On to `COc1cc(NC(=O)c2cccs2)c2cc1Oc1ccc(cc1)C[C@H]1c3cc(c(OC)cc3CCN1C)Oc1c(OC)c(OC)cc3c1[C@H](C2)N(C)CC3`, for which the figures for the IC50 (in assay [1]; in the assay with PLC-PRF-5) were 11.9 µM and 9.01 µM, respectively.
As for `CCCCCC(=O)Nc1cc(OC)c2cc1C[C@H]1c3c(cc(OC)c(OC)c3Oc3cc4c(cc3OC)CCN(C)[C@H]4Cc3ccc(cc3)O2)CCN1C`, the results for the IC50 (in assay [1]; in the assay on PLC-PRF-5) were 12.6 µM and 10.3 µM, respectively.
The corresponding values for `COc1cc(NC(=O)OCC(C)C)c2cc1Oc1ccc(cc1)C[C@H]1c3cc(c(OC)cc3CCN1C)Oc1c(OC)c(OC)cc3c1[C@H](C2)N(C)CC3` are 1.4 µM and 4.66 µM.
Regarding `COc1cc(NC(=O)C2CCCO2)c2cc1Oc1ccc(cc1)C[C@H]1c3cc(c(OC)cc3CCN1C)Oc1c(OC)c(OC)cc3c1[C@H](C2)N(C)CC3` (some centres undefined), the IC50 in assay [1] came out at 5.66 µM; in the assay on PLC-PRF-5, 7.32 µM.
The corresponding values for `COc1cc(NC(=O)c2ccc(C(F)(F)F)cc2)c2cc1Oc1ccc(cc1)C[C@H]1c3cc(c(OC)cc3CCN1C)Oc1c(OC)c(OC)cc3c1[C@H](C2)N(C)CC3` are 8.41 µM and 9.49 µM.
On the same counts, the results for `C=CCCCCCCCCC(=O)Nc1cc(OC)c2cc1C[C@H]1c3c(cc(OC)c(OC)c3Oc3cc4c(cc3OC)CCN(C)[C@H]4Cc3ccc(cc3)O2)CCN1C` are 10.8 µM and 11.3 µM.
The corresponding values for `COc1cc(NC(=O)C2CC=CC2)c2cc1Oc1ccc(cc1)C[C@H]1c3cc(c(OC)cc3CCN1C)Oc1c(OC)c(OC)cc3c1[C@H](C2)N(C)CC3` are 5.76 µM and 6.42 µM.
Turning to `COc1cc(NC(=O)c2cccc3ccccc23)c2cc1Oc1ccc(cc1)C[C@H]1c3cc(c(OC)cc3CCN1C)Oc1c(OC)c(OC)cc3c1[C@H](C2)N(C)CC3`, the IC50 in assay [1] is 5.63 µM; with PLC-PRF-5, 5.56 µM.
With `COc1cc(NC(=O)c2ccc(Cl)cc2)c2cc1Oc1ccc(cc1)C[C@H]1c3cc(c(OC)cc3CCN1C)Oc1c(OC)c(OC)cc3c1[C@H](C2)N(C)CC3`, the results for the IC50 (in assay [1]; with PLC-PRF-5) were 10.3 µM and 11.9 µM, respectively.
For `COC(=O)C(=O)Nc1cc(OC)c2cc1C[C@H]1c3c(cc(OC)c(OC)c3Oc3cc4c(cc3OC)CCN(C)[C@H]4Cc3ccc(cc3)O2)CCN1C`, the values for the IC50 (in assay [1]; in the assay with PLC-PRF-5) were 2.46 µM and 3.72 µM, respectively.
On the same counts, the results for `COc1cc(NC(=O)c2ccoc2)c2cc1Oc1ccc(cc1)C[C@H]1c3cc(c(OC)cc3CCN1C)Oc1c(OC)c(OC)cc3c1[C@H](C2)N(C)CC3` are 3.22 µM and 1.89 µM.
Take `COc1cc(NC(=O)c2ccc(Cl)cc2Cl)c2cc1Oc1ccc(cc1)C[C@H]1c3cc(c(OC)cc3CCN1C)Oc1c(OC)c(OC)cc3c1[C@H](C2)N(C)CC3`: the IC50 worked out at 1.7 µM in assay [1] and 8.24 µM in the assay with PLC-PRF-5.
In the case of `COc1cc(NC(=O)CO)c2cc1Oc1ccc(cc1)C[C@H]1c3cc(c(OC)cc3CCN1C)Oc1c(OC)c(OC)cc3c1[C@H](C2)N(C)CC3`, the IC50 in assay [1] was 9.09 µM; in the assay with PLC-PRF-5, 10.2 µM.
On the same counts, the results for `COc1cc(NC(C)=O)c2cc1Oc1ccc(cc1)C[C@H]1c3cc(c(OC)cc3CCN1C)Oc1c(OC)c(OC)cc3c1[C@H](C2)N(C)CC3` are 12.2 µM and 12.3 µM.
On the same counts, the results for `COc1ccc2cc1Oc1ccc(cc1)C[C@H]1c3cc(c(OC)cc3CCN1C)Oc1c(OC)c(OC)cc3c1[C@H](C2)N(C)CC3` [FANCHININ] are 15 µM and 18.5 µM.
The corresponding values for `COc1cc(NC(=O)c2cccc(Cl)c2)c2cc1Oc1ccc(cc1)C[C@H]1c3cc(c(OC)cc3CCN1C)Oc1c(OC)c(OC)cc3c1[C@H](C2)N(C)CC3` are 3.67 µM and 7.63 µM.
Consider `COc1cc(NC(=O)COC(C)=O)c2cc1Oc1ccc(cc1)C[C@H]1c3cc(c(OC)cc3CCN1C)Oc1c(OC)c(OC)cc3c1[C@H](C2)N(C)CC3`, for which the IC50 came to 8.41 µM in assay [1] and 10.2 µM in the assay on PLC-PRF-5.
As to `COc1cc(NC(=O)CCBr)c2cc1Oc1ccc(cc1)C[C@H]1c3cc(c(OC)cc3CCN1C)Oc1c(OC)c(OC)cc3c1[C@H](C2)N(C)CC3`, the 50% inhibitory concentration (IC50) came to 7.86 µM in assay [1] and 6.34 µM in the assay on PLC-PRF-5.
For `COc1cc(NC(=O)c2ccc([N+](=O)[O-])o2)c2cc1Oc1ccc(cc1)C[C@H]1c3cc(c(OC)cc3CCN1C)Oc1c(OC)c(OC)cc3c1[C@H](C2)N(C)CC3`, the IC50 came out at 2.11 µM in assay [1] and 2.5 µM with PLC-PRF-5.
The corresponding values for `COc1cc(NC(=O)C(Cl)(Cl)Cl)c2cc1Oc1ccc(cc1)C[C@H]1c3cc(c(OC)cc3CCN1C)Oc1c(OC)c(OC)cc3c1[C@H](C2)N(C)CC3` are 4.26 µM and 3.22 µM.
On to `COc1cc(NC(=O)c2ccccc2Cl)c2cc1Oc1ccc(cc1)C[C@H]1c3cc(c(OC)cc3CCN1C)Oc1c(OC)c(OC)cc3c1[C@H](C2)N(C)CC3`, for which the values for the IC50 (in assay [1]; in the assay on PLC-PRF-5) were 2.81 µM and 12.1 µM, respectively.
On the same counts, the results for `COc1cc(NC(=O)c2ccc(Br)cc2)c2cc1Oc1ccc(cc1)C[C@H]1c3cc(c(OC)cc3CCN1C)Oc1c(OC)c(OC)cc3c1[C@H](C2)N(C)CC3` are 4.4 µM and 7.76 µM.
Regarding `COc1cc(NC(=O)c2ccc(Cl)c(Cl)c2)c2cc1Oc1ccc(cc1)C[C@H]1c3cc(c(OC)cc3CCN1C)Oc1c(OC)c(OC)cc3c1[C@H](C2)N(C)CC3`, the IC50 in assay [1] was found to be 3.81 µM; with PLC-PRF-5, 6.82 µM.
On to `COc1ccc(C(=O)Nc2cc(OC)c3cc2C[C@H]2c4c(cc(OC)c(OC)c4Oc4cc5c(cc4OC)CCN(C)[C@H]5Cc4ccc(cc4)O3)CCN2C)cc1`, for which the IC50 in assay [1] worked out at 12 µM; with PLC-PRF-5, 5.32 µM.
On the same counts, the results for `COc1cc(NC(=O)/C=C/c2ccccc2)c2cc1Oc1ccc(cc1)C[C@H]1c3cc(c(OC)cc3CCN1C)Oc1c(OC)c(OC)cc3c1[C@H](C2)N(C)CC3` are 7.7 µM and 9.81 µM.
Take `COc1cc(NC(=O)c2c(Cl)cc(Cl)cc2Cl)c2cc1Oc1ccc(cc1)C[C@H]1c3cc(c(OC)cc3CCN1C)Oc1c(OC)c(OC)cc3c1[C@H](C2)N(C)CC3`: the IC50 in assay [1] came to 4.12 µM; in the assay with PLC-PRF-5, 6.54 µM.
The corresponding values for `COc1cc(NC(=O)C(C)(C)C)c2cc1Oc1ccc(cc1)C[C@H]1c3cc(c(OC)cc3CCN1C)Oc1c(OC)c(OC)cc3c1[C@H](C2)N(C)CC3` are 6.4 µM and 5.37 µM.
In the case of `COc1cc(NC(=O)C=C(C)C)c2cc1Oc1ccc(cc1)C[C@H]1c3cc(c(OC)cc3CCN1C)Oc1c(OC)c(OC)cc3c1[C@H](C2)N(C)CC3`, the values for the half-inhibitory concentration (IC50) (in assay [1]; in the assay on PLC-PRF-5) were 6.31 µM and 7.63 µM, respectively.
On to `COc1cc(NC(=O)CCCl)c2cc1Oc1ccc(cc1)C[C@H]1c3cc(c(OC)cc3CCN1C)Oc1c(OC)c(OC)cc3c1[C@H](C2)N(C)CC3`, for which the IC50 was found to be 9.21 µM in assay [1] and 6.28 µM with PLC-PRF-5.
On to `CNC(=O)c1cc(Oc2ccc(NC(=O)Nc3ccc(Cl)c(C(F)(F)F)c3)cc2)ccn1` [SORAFENIB], for which the IC50 turned out to be 34.4 µM in assay [1] and 29.9 µM with PLC-PRF-5.

In general, IC50 refers to the midpoint of a concentration-inhibition curve.
